How the values were obtained:
[1] = Metabolite profile of [14C] compound (I) in monkey hepatocyte incubations; assay type: in vitro ADME, cynomolgus monkey; details: (Ia) 20 μM, 3 h, 37° C., ~2 million cells/mL; relative distribution in radiochromatographic profile
Experimental: (§1) The compound of formula (I) was used as the [^14C] compound (Ia) (30.4 μCi/mg, radiochemical purity 99.2%), as the monohydrate of the free base. The C-14 label was on the carbon in the 2-position of the thiazole ring.
(§2) Freshly isolated rat hepatocyte preparations were prepared from one male Sprague-Dawley rat. Rat Hepatocytes were prepared according to a standard procedure (Seglen, PO. Preparation of isolated rat liver cells. Methods Cell Biol., 1976, 13: 29-83). Cryopreserved cynomolgus monkey hepatocytes (male, pooled, n=6) and human hepatocytes (3 individual preparation) were purchased from In Vitro Technologies (Baltimore, Md.). Microsomes from male SD Rats (pooled, n=200, 20 mg/mL) and male cynomolgus monkeys (pooled, n=8, 20 mg/mL) were obtained from Xenotech LLC, Kansas City, Kans. Human liver microsomes (male, pooled, n=38) were from BD-Gentest, Woburn, Mass.
(§3) A 6 mM stock solution of the compound of formula (Ia) (the [^14C] of the compound of formula (I) was prepared at by dissolving 3.7 mg of the compound of formula (Ia) into 1:1 acetonitrile/DMSO. The 2 mM stock solution of the compound of formula (Ia) was obtained by diluting an aliquot of the 6 mM stock solution 3-fold with acetonitrile.
(§4) Human (3 vials from 3 individuals) and monkey cryopreserved hepatocytes were thawed according to the procedure provided by In Vitro Technologies. Briefly, the caps of the cryovials were loosened to release any trapped liquid nitrogen and kept on ice for 2 min. The caps were tightened and the vials were immersed in a 37° C. water bath for 75-90 sec with gentle shaking. The thawed samples (3 cryovials/[…] for each 50 mL tube) were transferred into 25 mL pre-warmed Krebs-Henseleit buffer in a 50 mL tube and gently inverted. The suspensions were evenly divided into 2 tubes and diluted to 40 mL with pre-warmed Krebs-Henseleit buffer. The tubes were centrifuged in an Eppendorf 5810R centrifuge (Hamburg, Germany) at 200 rpm at 4° C. for 10 min. The supernatant was discarded and the pellet gently suspended in 2 mL of Krebs-Henseleit buffer. All the tubes were combined into one tube, rinsing the empty tubes with 1 mL Krebs-Henseleit buffer. The cells were counted, checked for viability and diluted accordingly with modified Krebs-Henseleit buffer to give a final concentration of 2 million viable cells/mL.
(§5) Viability of the hepatocytes was checked using a Trypan Blue exclusion assay and a hemocytometer. A mixture of 0.1 mL of the hepatocyte suspension and 0.1 mL of trypan blue solution were diluted with 0.8 mL of Krebs-Henseleit buffer. The solution was gently mixed and plated onto a Levy hemocytometer (Hausser Scientific) and the viable cells (unstained) were counted under a light microscope. The viability of the hepatocytes ranged from 77% to 90% at the beginning of the incubations.
(§6) Hepatocyte incubations were conducted at 37° C. for 3 h in a NAPCO CO2 6000 incubator (VWR Scientific Products) under a 5% CO2 atmosphere using an orbital shaker at 90 rpm. For each incubation, the final concentration of compound (Ia) was 20 μM and the hepatocyte concentrations were ˜2 million cells/mL. A control incubation, in the absence of hepatocytes, was also performed for 3 h. The incubations were stopped by adding one volume of ice-cold acetonitrile. Each 0.5 mL incubation contained 0.1 M potassium phosphate buffer (pH 7.4), 2.5 mM MgCl2, 2 mg/mL microsomal protein, and 2.0 mM NADPH. The final substrate concentration was 20 μM. The mixtures were incubated in a shaking water bath at 37° C. for 15 min. Control incubations in the absence of microsomes or NADPH were performed for each species. The reactions were stopped with the addition of 1 mL of ice-cold acetonitrile.
(§7) HPLC was performed on a Waters Alliance™ system equipped with Waters 2695 pumps and a photodiode array detector (Waters 2996). A Phenomenex Synergy Polar-RP® column (4.6×250 mm, 5 micron) was used for metabolite separation. […]

[2] = Metabolite profile of [14C] compound (I) in human hepatocyte incubations; assay type: in vitro ADME; details: (Ia) 20 μM, 3 h, 37° C., ~2 million cells/mL; relative distribution in radiochromatographic profile
Experimental: as §1, §2, §3, §4, §5, §6, §7

[3] = Metabolite profile of [14C] compound (I) in rat liver microsome incubations; assay type: in vitro ADME, SD rat; details: (Ia) 20 μM, 15 min, 37° C., 2 mg/mL microsomal protein, 2.0 mM NADPH
Experimental: as §1, §2, §3, §6
(§8) HPLC was performed on a Waters Alliance™ system equipped with Waters 2695 pumps and a photodiode array detector (Waters 2996). A Phenomenex Synergy Polar-RP® column (4.6×250 mm, 5 micron) was used for metabolite separation. All HPLC analyses were performed at 1 mL/min flow rate at room temperature. Two HPLC mobile phase and gradient systems were used because all metabolites could not be completely separated on either of the individual HPLC systems. The first system consisted of (A) water with 0.1% formic acid and (B) acetonitrile with 0.1% formic acid as mobile phase. The linear gradient was as follows: 0 min, 20% B; 1 min, 20% B; 41 min, 35% B; 42 min, 90% B; 44 min, 90% B. The column was re-equilibrated at 20% B for 6 min before the next injection. The second HPLC system was used to separate certain co-eluting metabolites that could not be separated by the first system. The mobile phase consisted of (A) water with 0.1% triflouroacetic acid (TFA) and (B) acetonitrile with 0.1% TFA. The gradient was as follows: 0 min, 20% B; 1 min, 20% B; 51 min, 35% B; 52 min, 90% B; 54 min 90% B. The column was equilibrated at 20% B for 6 min prior to the next injection.
(§9) On-line radioactivity detection (RAD) was conducted using an INUS β-RAM detector (Model 3, INUS, Tampa, Fla.). The β-RAM was operated with a 500 μL liquid flow cell in the homogeneous liquid scintillation counting mode. A flow rate of 2 mL/min of scintillation cocktail was mixed with the HPLC effluent. The effluent from HPLC was split to the β-RAM detector (90%) and the mass spectrometer (10%) by adjusting the length and diameter of post column tubings. The β-RAM detector provided integrated output detailing the percentage and amount of radioactivity under each radioactive peak.
(§10) Hepatocyte and liver microsomal incubations were quenched with acetonitrile and were vortex-mixed for 3 min. […]

[4] = Metabolite profile of [14C] compound (I) in human liver microsome incubations; assay type: in vitro ADME; details: (Ia) 20 μM, 15 min, 37° C., 2 mg/mL microsomal protein, 2.0 mM NADPH
Experimental: as §1, §2, §3, §6, §8, §9, §10

[5] = Metabolite profile of [14C] compound (I) in monkey liver microsome incubations; assay type: in vitro ADME, cynomolgus monkey; details: (Ia) 20 μM, 15 min, 37° C., 2 mg/mL microsomal protein, 2.0 mM NADPH
Experimental: as §1, §2, §3, §6, §8, §9, §10

Structure (SMILES) | % of Radioactivity in Hepatocytes, Monkey [1] [%] | % of Radioactivity in Hepatocytes, Human [2] [%] | % of Radioactivity in Microsomes, Rat [3] [%] | % of Radioactivity in Microsomes, Human [4] [%] | % of Radioactivity in Microsomes, Monkey [5] [%]
Cc1nc(Nc2ncc(C(=O)Nc3c(C)cc(O)cc3Cl)s2)cc(N2CCN(CCO)CC2)n1 [M20 (V)] | 4.5 | 2.6 | 4.5 | 39.2 | 30.0
Cc1nc(Nc2ncc(C(=O)Nc3c(C)cccc3Cl)s2)cc(N2CCN(CCO)CC2)n1 [Parent (I), N-(2-Chloro-6-methylphenyl)-2-[[6-[4-(2-hydroxyethyl)-1-piperazinyl]-2-methyl-4-pyrimidinyl]amino]-5-thiazolecarboxamide] | 61.2 | 77.7 | 54.2 | 35.5 | 27.7
Cc1nc(Nc2ncc(C(=O)Nc3c(C)cccc3Cl)s2)cc(N2CCNCC2)n1 [M4 (II)] | 3.7 | 1.0 | 1.8 | 4.0 | 5.8
Cc1nc(Nc2ncc(C(=O)Nc3c(C)cccc3Cl)s2)cc(N2CCN(CC(=O)O)CC2)n1 [M6 (IV), 2-(4-(6-(5-((2-Chloro-6-methylphenyl)carbamoyl)thiazol-2-ylamino)-2-methylpyrimidin-4-yl)piperazin-1-yl)acetic acid] | 6.5 | 9.2 | 0.7 | 1.6 | 2.1

Further lines, results first:

% of Radioactivity in Hepatocytes, Monkey [1] [%] | % of Radioactivity in Hepatocytes, Human [2] [%] | % of Radioactivity in Microsomes, Rat [3] [%] | % of Radioactivity in Microsomes, Human [4] [%] | % of Radioactivity in Microsomes, Monkey [5] [%] | Structure (SMILES)
4.5 | 2.6 | 4.5 | 39.2 | 30.0 | Cc1nc(Nc2ncc(C(=O)Nc3c(Cl)cccc3CO)s2)cc(N2CCN(CCO)CC2)n1 [M24 (VI), N-(2-chloro-6-(hydroxymethyl)phenyl)-2-(6-(4-(2-hydroxyethyl)piperazin-1-yl)-2-methylpyrimidin-4-ylamino)thiazole-5-carboxamide]
3.2 | 2.3 | 37.3 | 4.0 | 8.6 | Cc1nc(Nc2ncc(C(=O)Nc3c(C)cccc3Cl)s2)cc(N2CC[N+]([O-])(CCO)CC2)n1 [M5 (III)]
